# Measurements as given in patent publication US20140179681A1, “METHODS AND COMPOSITIONS OF TARGETED DRUG DEVELOPMENT” (priority 2010, published 2014).
# Where a name gives a salt, the structure may show the parent alone. Read-outs that look alike come from different tables or passages of the source.
# Experiments:
# MDBK line = assay: MTT Cell Proliferation Assay, MDBK cells; format: cell-based, bovine; conditions: MDBK cells; for IC50: Bos taurus, MDBK
# From the text: (§1) The following example describes the MTT Cell Proliferation Assay.
# (§2) The MTT Cell Proliferation Assay is a colorimetric assay system that measures the reduction of the tetrazolium salt MTT (3-(4,5-dimethylthiazol-2-yl)-2,5-diphenyltetrazolium bromide) into insoluble formazan crystals, produced by the mitochondria of viable cells. […] The color can then be quantified by spectrophotometric means. Among the applications for the method are drug sensitivity, cytotoxicity, response to growth factors, and cell activation. The reduction of tetrazolium salts is now recognized as a safe, accurate alternative to radiometric testing.
# (§3) Two replicates on each cell plate and 2 duplicate plates gave 4 individual replicates of each concentration, in each cell line. Concentrations were diluted in 100% DMSO from 25 mM stocks.
# (§4) Twelve 96 well plates of each cell line were plated. Plating was done by dislodging cells as in passage protocol, counting on a hemocytometer, re-suspending in standard growth media, and plating using a multichannel pippetor.
# (§5) 16 μl of 25 mM stock+34 μl DMSO=8 mM starting concentrations, and serial diluted as with test compounds in same plate. […] Two replicates of each concentrations was run on each cell plate. All compound addition and cell treatments were done using aseptic technique under a laminar flow aseptic hood.
# (§6) Control: 0.5% DMSO in treatment media was used as the control.
# (§7) MTT dye (Thiazolyl Blue Tetrazolium Bromide, Sigma cat #M5655) stock was prepared in bulk and stored at 4° C. for use: 5 mgs/ml sterile PDS, shielded from light. 4 ul of this stock per 100 uls treatment media per well was used.
# (§8) Plates were incubated overnight prior to treatment, with treatment day=Day 0. Compound treatments were prepared prior to washing cells to minimize time cells were dry at room temperature after final aspiration. Compounds were diluted in 100% DMSO in 96 well polypropylene plates: 40 μl 25 mM stock+10 μl DMSO=20 mM; 20 μl of 20 mM+30 μl DMSO=8 mM; 20 μl of 8 mM+30 μl DMSO=3.2 mM; 20 μl of 3.2 mM+30 μl DMSO=1.3 mM; 20 μl of 1.3 mM+30 μl DMSO=0.51 mM.
# (§9) 5.0 μl/ml were added to treatment media, in sterile, 2.2 ml deep well plates=0.5% dmso final. Ten μl of each dmso concentration was added to 2.0 ml of treatment media and then mixed using a 1200 μl multichannel pipettor. Cell plates were treated from the deep well plates. Treatment media was standard growth media containing 0.5% FBS and standard additions. This reduced FBS concentration allowed for a slower growth rate in cells.
# (§10) Media was aspirated from cell plates, and washed with 200 μl/well sterile PBS. Aspirated PBS wash, and cell plates were treated with 200 μl of compound/treatment media per well, and incubated at 37° C., 5% CO2 for 3 days.
# (§11) Prior to harvesting, visual observations were made under an inverted microscope. Plates were harvested by: aspirating the growth media; adding back MTT dye/100 μl treatment media; and incubating plates at 37° C. for 1 hour. MTT dye was aspirated. 100 μl/well dmso was added, and then shaken on a Bellco plate shaker for 5 minutes, at 4.5 setting.
# (§12) Plates were read in a Tecan Sunrize UV plate reader, at 560 nm. Settings: Read mode, Outside Normal 2 sec; Shake settle time 3 sec. Data is reported as % inhibition, calculated for individual plates using control values from that plate.
# EGFR = biological target: T1, EGFR (Homo sapiens, UniProt P00533); assay: EGFR in-cell Western (ICW) screening protocol (EGFR inhibition assay); format: cell-based; parameters: ICW 1 / ICW 2 / ICW Avg: unit not given here; conditions: ICW assay; for ICW Avg: average of runs 1 and 2; for ICW 1: run 1; for ICW 2: run 2
# T1 construct: host or cells: A431
# T1 sequence (P00533 25-1210): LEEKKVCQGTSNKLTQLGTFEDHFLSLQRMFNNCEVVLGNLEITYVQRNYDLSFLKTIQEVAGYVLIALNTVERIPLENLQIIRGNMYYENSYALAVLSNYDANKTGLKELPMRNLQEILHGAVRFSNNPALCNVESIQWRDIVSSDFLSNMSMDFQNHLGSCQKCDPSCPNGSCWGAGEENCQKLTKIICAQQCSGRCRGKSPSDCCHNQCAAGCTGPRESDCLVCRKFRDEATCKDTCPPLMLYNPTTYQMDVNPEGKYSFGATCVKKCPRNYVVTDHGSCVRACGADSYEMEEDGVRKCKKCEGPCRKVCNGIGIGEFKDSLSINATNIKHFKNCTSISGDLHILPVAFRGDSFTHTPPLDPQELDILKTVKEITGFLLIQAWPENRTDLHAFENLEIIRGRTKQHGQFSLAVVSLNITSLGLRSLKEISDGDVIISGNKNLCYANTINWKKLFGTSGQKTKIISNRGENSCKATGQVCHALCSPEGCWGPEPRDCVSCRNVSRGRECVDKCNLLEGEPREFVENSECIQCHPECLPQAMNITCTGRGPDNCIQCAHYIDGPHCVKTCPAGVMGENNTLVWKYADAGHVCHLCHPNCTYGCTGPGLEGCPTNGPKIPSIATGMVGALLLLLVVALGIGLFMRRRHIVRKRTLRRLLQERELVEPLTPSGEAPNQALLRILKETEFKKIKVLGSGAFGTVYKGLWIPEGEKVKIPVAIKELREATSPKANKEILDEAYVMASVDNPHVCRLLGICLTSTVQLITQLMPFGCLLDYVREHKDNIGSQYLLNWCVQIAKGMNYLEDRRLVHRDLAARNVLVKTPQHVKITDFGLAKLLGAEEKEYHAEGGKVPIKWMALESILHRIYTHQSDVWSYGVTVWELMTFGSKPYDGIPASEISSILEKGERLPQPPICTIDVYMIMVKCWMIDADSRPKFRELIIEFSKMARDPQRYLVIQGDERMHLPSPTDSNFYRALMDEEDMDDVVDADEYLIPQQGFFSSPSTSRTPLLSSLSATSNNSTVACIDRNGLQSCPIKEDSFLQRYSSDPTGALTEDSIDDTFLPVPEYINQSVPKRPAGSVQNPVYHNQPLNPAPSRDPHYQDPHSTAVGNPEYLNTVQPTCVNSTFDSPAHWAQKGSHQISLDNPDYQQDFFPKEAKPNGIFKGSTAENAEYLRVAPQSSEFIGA
# In short: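 Serum-starved A431 cells (2 h) were pretreated with compound for 4 h at 37° C, then stimulated with EGF (10 ng/ml final, or 6.6 or 12.5 ng/ml in some runs) for 10 min. After formaldehyde fixation, phospho-EGFR (Tyr1173, or Tyr1045 in some runs) and total EGFR were detected by in-cell Western immunostaining.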
# [1] = test system: epithelial carcinoma A431 cell line; assay: MTT Cell Proliferation Assay, A431 cells; format: cell-based; conditions: for MTT Assay IC50(A431/MDBK): ratio in parentheses: ratio MDBK IC50 / A431 IC50 (selectivity)
# From the text: as §1, §2, §3, §4, §5, §6, §7, §8, §9, §10, §11, §12
# [2] = second value of cell, read-out: MTT Assay IC50(A431/MDBK): MDBK
# [3] = Homo sapiens, A-431, A431 cells, first value of cell, read-out: MTT Assay IC50(A431/MDBK): A431
ICW Avg (EGFR),ICW 1 (EGFR),ICW 2 (EGFR),"IC50 [1, 3]",MTT Assay IC50(A431/MDBK): ratio in parentheses [1],MTT Assay IC50(A431/MDBK): MDBK (MDBK line; second value of cell),"IC50 ([1]; Homo sapiens, A-431, follow-up MTT, A431 cells, first value, read-out: MTT Follow-up: A431)","IC50 ([1]; A431 cells, first value of cell, read-out: MTT Assay IC50(A431/MDBK): A431)",SMILES,IC50 (MDBK line; [2]),"IC50 (MDBK line; follow-up MTT, second value, read-out: MTT Follow-up: MDBK)","MTT Follow-up: ratio in parentheses ([1]; follow-up MTT, ratio MDBK/A431)"
38.91,47.15,30.67,14.5 µM,0.69,,,,CCCCCc1c(C)nc(Nc2nc(C)c3ccc(C)cc3n2)[nH]c1=O [11730 + TFA],10.1 µM,,
35.74,33.84,37.63,16.1 µM,,non-convergent,,,COc1ccc2nc(Nc3nc(C)c(Cc4cccc(Cl)c4)c(=O)[nH]3)nc(C)c2c1 [11742 + TFA],,,
25.68,29.51,21.86,33.5 µM,0.43,,,,COc1ccccc1-c1cc(=O)[nH]c(Nc2nc(C)c3cc(C)c(C)cc3n2)n1 [11746 + TFA],14.4 µM,,
29.97,34.09,25.85,5.58 µM,1.35,,,,Cc1cccc(Cc2c(C)nc(Nc3nc(C)c4cccc(C)c4n3)[nH]c2=O)c1 [11754 + TFA],7.55 µM,,
32.41,38.43,26.39,14.2 µM,0.52,,,,O=c1cc(C(F)(F)F)[nH]c(Nc2nc(-c3ccccc3)c3cc(Cl)ccc3n2)n1 [11759 + TFA],7.36 µM,,
46.95,51.58,42.32,18.2 µM,2.32,,,,CCc1ccc2c(C)nc(Nc3nc(C)c(CCC(C)C)c(=O)[nH]3)nc2c1 [11771 + TFA],42.1 µM,,
77.09,80.68,73.50,9.75 µM,0.93,,,,COc1cccc2c(C)nc(Nc3nc(C)cc(=O)[nH]3)nc12 [11772 + TFA],9.04 µM,,
33.52,43.74,23.30,39.4 µM,0.53,,,,CCCc1c(C)nc(Nc2nc(C)c3cccc(OC)c3n2)[nH]c1=O [11773 + TFA],21 µM,,
60.19,66.95,53.44,18.2 µM,0.82,,,,Cc1ccc2c(C)nc(Nc3nc(CCC(C)C)cc(=O)[nH]3)nc2c1 [11783 + TFA],15 µM,,
35.54,41.06,30.01,10.3 µM,0.88,,24.8 µM,,Cc1ccc2nc(Nc3nc(-c4ccccc4C)cc(=O)[nH]3)nc(C)c2c1 [11785 + TFA],9.15 µM,25.9 µM,1.04
33.52,35.23,31.81,26.8 µM,0.48,,,,Cc1ccc2nc(Nc3nc(CCC(C)C)cc(=O)[nH]3)nc(C)c2c1 [11795 + TFA],12.9 µM,,
33.14,34.26,32.02,6.71 µM,0.87,,,,COc1ccc(-c2cc(=O)[nH]c(Nc3nc(C)c4ccc(C)cc4n3)n2)cc1OC [11800 + TFA],5.86 µM,,
25.37,30.73,20.02,5.31 µM,3.35,,,,CC1(C)CC(=O)c2cnc(Nc3nc(-c4ccccc4)c4cc(Cl)ccc4n3)nc2C1 [11807 + TFA],17.8 µM,,
32.72,31.42,34.02,39.3 µM,0.28,,,,CCc1c(C)[nH]c(Nc2nc(C)c3cc(C)c(C)cc3n2)nc1=O [11809 + TFA],10.9 µM,,
26.67,39.76,13.58,14.2 µM,1.99,,,,Cc1ccc2nc(Nc3nc(C)cc(C(F)(F)F)n3)nc(C)c2c1 [11816 + TFA],28.1 µM,,
37.16,40.52,33.80,49.4 µM,0.88,,,,Cc1ccc2nc(Nc3nc(=O)cc(CSc4ccc(Cl)cc4)[nH]3)nc(C)c2c1 [11826 + TFA],43.3 µM,,
34.91,42.29,27.52,32.4 µM,1.40,,,,CCCCCC1C(=O)N=C(Nc2nc(C)c3ccc(CC)cc3n2)N=C1C (stereo not shown) [12214 + TFA],45.5 µM,,
38.74,42.24,35.23,42.5 µM,1.15,,,,CCCCCc1c(C)nc(Nc2nc(C)c3cc(CC)ccc3n2)[nH]c1=O [12226 + TFA],49 µM,,
25.97,16.57,35.37,19.2 µM,1.08,,,,Cc1nc(Nc2nc3c(c(-c4ccccc4)n2)CCCC3)nc2c(C)cccc12 [12229 + TFA],20.9 µM,,
38.61,48.06,29.15,,0.62,,,16.2 µM,CCCCc1c(C)nc(Nc2nc(C)c3ccccc3n2)[nH]c1=O [12603 + TFA],10.1 µM,,
50.98,55.87,46.08,19.3 µM,1.55,,,,Cc1ccc(-c2cc(=O)[nH]c(Nc3nc(C)c4ccc(C)cc4n3)n2)cc1 [12604 + TFA],30 µM,,
32.62,38.40,26.85,16.6 µM,0.71,,,,C=CCc1c(C)nc(Nc2nc(C)c3cccc(C)c3n2)[nH]c1=O [12607 + TFA],11.8 µM,,
42.36,46.64,38.07,43.1 µM,,,,,CCOc1ccc2nc(Nc3nc(=O)cc(-c4ccccc4)[nH]3)nc(C)c2c1 [12608 + TFA],17 µM,,
31.33,41.25,21.42,50.4 µM,0.39,,,,C=CCc1c(C)nc(Nc2nc(C)c3ccccc3n2)[nH]c1=O [12610 + TFA],19.6 µM,,
45.72,52.69,38.76,5.32 µM,1.00,,,,Cc1nc(Nc2nc(C)c3cccc(C)c3n2)[nH]c(=O)c1Cc1ccccc1 [12611 + TFA],5.31 µM,,
